From ChEMBL document CHEMBL1641441, “A novel screening model for the molecular drug for diabetes and obesity based on tyrosine phosphatase Shp2” (Bioorg Med Chem Lett, 2011)
The source made the active and inactive calls.

Columns and labels:
[1] = target: Tyrosine-protein phosphatase non-receptor type 6 (Homo sapiens) (UniProt P29350); assay: Increase of GST-tagged full length Shp1 activity expressed in Escherichia coli BL21 at 10 uM after 30 mins
[2] = target: Dual specificity protein phosphatase 3 (Homo sapiens) (UniProt P51452); assay: Increase of GST-tagged full length Vhr activity expressed in Escherichia coli BL21 at 10 uM after 30 mins
[3] = target: T1, Tyrosine-protein phosphatase non-receptor type 7 (Homo sapiens) (UniProt P35236); assay: Increase of GST-tagged full length HePTP activity expressed in Escherichia coli BL21 at 10 uM after 30 mins
T1 sequence (whole entry): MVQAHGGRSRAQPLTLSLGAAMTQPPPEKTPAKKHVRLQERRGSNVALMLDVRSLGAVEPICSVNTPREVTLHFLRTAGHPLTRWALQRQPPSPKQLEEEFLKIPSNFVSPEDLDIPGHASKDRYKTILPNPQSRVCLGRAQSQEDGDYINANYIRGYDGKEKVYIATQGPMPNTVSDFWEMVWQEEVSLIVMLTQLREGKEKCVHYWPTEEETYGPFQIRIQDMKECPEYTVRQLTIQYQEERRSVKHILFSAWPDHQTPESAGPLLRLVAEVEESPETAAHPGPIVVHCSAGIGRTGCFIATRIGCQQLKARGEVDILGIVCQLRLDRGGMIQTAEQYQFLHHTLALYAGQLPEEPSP

Measured: Activity

Tyrosine-protein phosphatase non-receptor type 6 (Homo sapiens), sequence (P29350 whole entry): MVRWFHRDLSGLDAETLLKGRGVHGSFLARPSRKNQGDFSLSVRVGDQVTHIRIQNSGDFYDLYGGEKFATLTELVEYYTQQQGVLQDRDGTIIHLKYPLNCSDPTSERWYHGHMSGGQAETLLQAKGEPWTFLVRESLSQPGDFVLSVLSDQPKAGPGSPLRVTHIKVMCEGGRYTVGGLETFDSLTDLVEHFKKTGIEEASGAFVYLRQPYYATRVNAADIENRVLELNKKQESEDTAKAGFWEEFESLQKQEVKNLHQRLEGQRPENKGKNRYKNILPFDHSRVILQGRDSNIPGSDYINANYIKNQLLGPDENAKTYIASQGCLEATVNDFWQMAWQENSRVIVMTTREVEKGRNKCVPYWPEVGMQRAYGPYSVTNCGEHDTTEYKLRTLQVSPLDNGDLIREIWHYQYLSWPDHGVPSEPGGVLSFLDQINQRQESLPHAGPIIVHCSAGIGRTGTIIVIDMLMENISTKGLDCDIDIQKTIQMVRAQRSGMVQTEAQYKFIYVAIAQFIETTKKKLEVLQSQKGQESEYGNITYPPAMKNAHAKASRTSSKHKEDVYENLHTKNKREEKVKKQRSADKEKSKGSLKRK
Dual specificity protein phosphatase 3 (Homo sapiens), sequence (P51452 whole entry, looked up): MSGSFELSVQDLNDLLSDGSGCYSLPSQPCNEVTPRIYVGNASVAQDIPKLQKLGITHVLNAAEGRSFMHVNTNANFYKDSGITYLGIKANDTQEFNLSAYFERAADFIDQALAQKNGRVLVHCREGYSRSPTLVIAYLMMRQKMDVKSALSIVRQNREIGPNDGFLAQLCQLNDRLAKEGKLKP

CC1(C)CC[C@]2(C(=O)O)CC[C@]3(C)C(=CC[C@@H]4[C@@]5(C)CC[C@H](O)C(C)(C)[C@@H]5CC[C@]43C)[C@@H]2C1
inactive: all assays above
